This assay addresses ROCK2 (Homo sapiens (Human), UniProt O75116). Description: ROCK assay (Caliper LABCHIP peptide phosphorylation, 5 μM ATP). In kind it is biochemical. As to conditions: 1.5 μM peptide substrate.
Sequence of ROCK2 (O75116 whole entry, species assumed): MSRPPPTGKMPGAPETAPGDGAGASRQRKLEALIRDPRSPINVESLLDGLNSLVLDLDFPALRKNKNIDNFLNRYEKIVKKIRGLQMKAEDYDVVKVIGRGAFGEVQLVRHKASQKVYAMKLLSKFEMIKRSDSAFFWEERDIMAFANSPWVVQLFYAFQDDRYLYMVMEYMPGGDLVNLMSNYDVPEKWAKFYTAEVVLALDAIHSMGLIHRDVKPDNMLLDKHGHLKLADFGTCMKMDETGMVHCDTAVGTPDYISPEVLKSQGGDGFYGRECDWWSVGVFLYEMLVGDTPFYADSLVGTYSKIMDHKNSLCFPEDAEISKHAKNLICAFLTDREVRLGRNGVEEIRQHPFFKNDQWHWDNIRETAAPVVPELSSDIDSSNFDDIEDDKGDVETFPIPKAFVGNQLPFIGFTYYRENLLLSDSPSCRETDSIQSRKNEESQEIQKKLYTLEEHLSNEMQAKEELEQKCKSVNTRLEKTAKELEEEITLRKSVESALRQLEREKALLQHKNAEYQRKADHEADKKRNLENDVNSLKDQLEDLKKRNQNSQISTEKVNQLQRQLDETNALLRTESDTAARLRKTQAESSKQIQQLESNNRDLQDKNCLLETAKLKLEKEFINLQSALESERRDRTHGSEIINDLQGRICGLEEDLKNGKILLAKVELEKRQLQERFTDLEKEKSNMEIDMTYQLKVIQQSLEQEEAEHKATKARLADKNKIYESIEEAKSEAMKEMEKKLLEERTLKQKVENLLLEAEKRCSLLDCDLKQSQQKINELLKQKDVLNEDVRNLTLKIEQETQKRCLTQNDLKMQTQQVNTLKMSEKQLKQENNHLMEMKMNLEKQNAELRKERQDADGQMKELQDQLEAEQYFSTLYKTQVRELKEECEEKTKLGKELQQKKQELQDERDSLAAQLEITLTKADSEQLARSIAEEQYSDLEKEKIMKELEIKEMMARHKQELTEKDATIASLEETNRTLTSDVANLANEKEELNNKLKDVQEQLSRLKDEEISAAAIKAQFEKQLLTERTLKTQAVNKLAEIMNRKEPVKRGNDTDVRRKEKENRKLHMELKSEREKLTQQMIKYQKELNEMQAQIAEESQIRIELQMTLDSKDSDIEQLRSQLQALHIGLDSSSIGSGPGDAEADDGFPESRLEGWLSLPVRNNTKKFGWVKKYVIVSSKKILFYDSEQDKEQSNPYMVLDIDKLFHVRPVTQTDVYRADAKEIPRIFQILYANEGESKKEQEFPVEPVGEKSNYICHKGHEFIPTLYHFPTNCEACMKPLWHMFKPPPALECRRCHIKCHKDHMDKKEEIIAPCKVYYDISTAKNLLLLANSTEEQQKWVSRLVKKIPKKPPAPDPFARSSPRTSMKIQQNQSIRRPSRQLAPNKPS
In turn, `CS(=O)(=O)c1ccc(CC(=O)Nc2ccc3c(c2)OCc2cnccc2-3)cc1` [Example I-20, N-(5H-chromeno[3,4-c]pyridin-8-yl)-2-(4-(methylsulfonyl)phenyl)acetamide] had an IC50 of 1760 nM.

Regarding `COc1cccc(CCC(=O)Nc2ccc3c(c2)[nH]c2cnccc23)c1` [Example IV-1, 3-(3-Methoxyphenyl)-N-(9H-pyrido[3,4-b]indol-7-yl)propanamide], the IC50 was 50.9 nM.

For the compound `O=C(Cc1ccccn1)Nc1ccc2c(c1)OCc1cnccc1-2` [Example I-33, N-(5H-chromeno[3,4-c]pyridin-8-yl)-2-(pyridin-2-yl) acetamide], the IC50 was 367 nM.

Take `O=C(Nc1ccc2c(c1)OCc1cnccc1-2)c1cncnc1` [Example I-45, N-(5H-chromeno[3,4-c]pyridin-8-yl) pyrimidine-5-carboxamide]: the IC50 was 1980 nM.

`O=C(Cc1ccc(-n2cnc3ccccc3c2=O)cc1)Nc1ccc2c(c1)OCc1cnccc1-2` [Example I-70, N-(5H-chromeno[3,4-c]pyridin-8-yl)-2-(4-(4-oxoquinazolin-3(4H)-yl)phenyl) acetamide] gave an IC50 of 1130 nM.

For `COc1ccc(CCC(=O)Nc2ccc3c(c2)OCc2cnccc2-3)cc1` [Example I-57, N-(5H-chromeno[3,4-c]pyridin-8-yl)-3-(4-methoxyphenyl) propanamide], the IC50 worked out at 1140 nM.

Regarding `Cc1onc(-c2ccccc2)c1NC(=O)Nc1ccc2c(c1)OCc1cnccc1-2` [II-11, 1-(5H-chromeno[3,4-c]pyridin-8-yl)-3-(5-methyl-3-phenylisoxazol-4-yl)urea], it took 2240 nM to reach half-maximal inhibition (IC50).

Compound `O=C(Nc1ccc2c(c1)OCc1cnccc1-2)c1ccc(F)cc1` [Example I-28, N-(5H-chromeno[3,4-c]pyridin-8-yl)-4-fluorobenzamide] showed an IC50 of 3440 nM.

Compound `N#Cc1cccc(CC(=O)Nc2ccc3c(c2)[nH]c2cnccc23)c1` [Example IV-5, 2-(3-Cyanophenyl)-N-(9H-pyrido[3,4-b]indol-7-yl)acetamide] displayed an IC50 of 383 nM.

As to `Cc1cc(C)cc(CC(=O)Nc2ccc3c(c2)OCc2cnccc2-3)c1` [Example I-16, N-(5H-chromeno[3,4-c]pyridin-8-yl)-2-(3,5-dimethylphenyl) acetamide], inhibition was half-maximal at 110 nM (IC50).

In turn, `O=C(Cc1cccc(Cl)c1)Nc1ccc2c(c1)OCc1cnccc1-2` [Example I-11, 2-(3-chlorophenyl)-N-(5H-chromeno [3,4-c]pyridin-8-yl) acetamide] showed an IC50 of 24.8 nM.

In turn, `COc1ccc(CC(=O)Nc2ccc3c(c2)OCc2cnccc2-3)cc1` [Example I-31, N-(5H-chromeno[3,4-c]pyridin-8-yl)-2-(4-methoxyphenyl) acetamide] had an IC50 of 497 nM.

In turn, `O=C(Nc1ccc2c(c1)OCc1cnccc1-2)C1Cc2ccccc2C1` [Example I-72, N-(5H-chromeno[3,4-c]pyridin-8-yl)-2,3-dihydro-1H-indene-2-carboxamide] displayed an IC50 of 58.7 nM.

Turning to `NS(=O)(=O)c1ccc(C(=O)Nc2ccc3c(c2)OCc2cnccc2-3)cc1` [Example I-40, N-(5H-chromeno[3,4-c]pyridin-8-yl)-4-sulfamoylbenzamide], the IC50 amounted to 500 nM.

Compound `N#Cc1ccc(-c2cnn(Cc3cccc(C(=O)Nc4ccc5c(c4)OCc4cnccc4-5)c3)c2)cc1` [Example I-27, N-(5H-chromeno[3,4-c]pyridin-8-yl)-3-((4-(4-cyanophenyl)-1H-pyrazol-1-yl)methyl)benzamide] displayed an IC50 of 60.8 nM.

Take `COC(=O)c1ccc(C(=O)Nc2ccc3c(c2)OCc2cnccc2-3)cc1` [Example I-56, methyl 4-(5H-chromeno[3,4-c]pyridin-8-ylcarbamoyl) benzoate]: the IC50 is 626 nM.

In turn, `O=C(Nc1ccc2c(c1)OCc1cnccc1-2)c1csnn1` [Example I-41, N-(5H-chromeno[3,4-c]pyridin-8-yl)-1,2,3-thiadiazole-4-carboxamide] gave an IC50 of 2760 nM.

The compound `O=C(NCCc1ccccc1F)Nc1ccc2c(c1)OCc1cnccc1-2` [II-7, 1-(5H-chromeno[3,4-c]pyridin-8-yl)-3-(2-fluorophenethyl)urea] displayed an IC50 of 233 nM.

`Cn1cccc1C(=O)Nc1ccc2c(c1)OCc1cnccc1-2` [Example I-64, N-(5H-chromeno[3,4-c]pyridin-8-yl)-1-methyl-1H-pyrrole-2-carboxamide] displayed an IC50 of 2960 nM.

Take `O=C(Nc1ccc2c(c1)OCc1cnccc1-2)c1csc(-c2cccnc2)n1` [Example I-39, N-(5H-chromeno[3,4-c]pyridin-8-yl)-2-(pyridin-3-yl) thiazole-4-carboxamide]: the IC50 was found to be 644 nM.

The compound `N[C@@H](CCc1ccccc1)C(=O)Nc1ccc2c(c1)OCc1cnccc1-2` [Example I-3, (S)-2-amino-N-(5H-chromeno[3,4-c]pyridin-8-yl)-4-phenylbutanamide] returned an IC50 of 284 nM.

`O=C(Cc1ccc(F)cc1Cl)Nc1ccc2c(c1)OCc1cnccc1-2` [Example I-10, 2-(2-chloro-4-fluorophenyl)-N-(5H-chromeno[3,4-c]pyridin-8-yl)acetamide] displayed a concentration for half-maximal inhibition (IC50) of 6.27 nM.

Regarding `O=C(Nc1ccc2c(c1)OCc1cnccc1-2)N1CCc2ccccc21` [Example II-1, N-(5H-Chromeno[3,4-c]pyridin-8-yl)indoline-1-carboxamide], the IC50 was 387 nM.

Turning to `Cc1ccccc1CC(=O)Nc1ccc2c(c1)OCc1cnccc1-2` [Example I-15, N-(5H-chromeno[3,4-c]pyridin-8-yl)-2-o-tolylacetamide], the IC50 stood at 16.7 nM.

Regarding `COc1cc(CC(=O)Nc2ccc3c(c2)OCc2cnccc2-3)cc(OC)c1` [Example I-18, N-(5H-chromeno[3,4-c]pyridin-8-yl)-2-(3,5-dimethoxyphenyl) acetamide], the IC50 came out at 393 nM.

Regarding `COc1ccc(CCNC(=O)Nc2ccc3c(c2)OCc2cnccc2-3)cc1` [II-6, 1-(5H-chromeno[3,4-c]pyridin-8-yl)-3-(4-methoxyphenethyl) urea], the concentration for half-maximal inhibition (IC50) was determined as 1610 nM.

The compound `O=C(Nc1ccc2c(c1)OCc1cnccc1-2)c1csc(-c2ccncc2)n1` [Example I-71, N-(5H-chromeno[3,4-c]pyridin-8-yl)-2-(pyridin-4-yl)thiazole-4-carboxamide] registered an IC50 of 316 nM.

In turn, `COc1ccc(CC(=O)Nc2ccc3c(c2)OCc2cnccc2-3)cc1OC` [Example I-19, N-(5H-chromeno[3,4-c]pyridin-8-yl)-2-(3,4-dimethoxyphenyl) acetamide] showed an IC50 of 2500 nM.

On to `O=C(CCc1ccc(O)cc1)Nc1ccc2c(c1)OCc1cnccc1-2` [Example I-58, N-(5H-chromeno[3,4-c]pyridin-8-yl)-3-(4-hydroxyphenyl) propanamide], for which half-maximal inhibition (IC50) required 111 nM.

Turning to `O=C(CCCc1ccccc1)Nc1ccc2c(c1)OCc1cnccc1-2` [Example I-32, N-(5H-chromeno[3,4-c]pyridin-8-yl)-4-phenylbutanamide], the IC50 was 682 nM.

Compound `CS(=O)(=O)c1cccc(C(=O)Nc2ccc3c(c2)OCc2cnccc2-3)c1` [Example I-43, N-(5H-chromeno[3,4-c]pyridin-8-yl)-3-(methylsulfonyl) benzamide] gave an IC50 of 2190 nM.

In the case of `CC(C)(C(=O)Nc1ccc2c(c1)OCc1cnccc1-2)c1ccccc1` [Example I-36, N-(5H-chromeno [3,4-c]pyridin-8-yl)-2-methyl-2-phenylpropanamide], the IC50 came out at 204 nM.

In general, IC50 refers to the concentration that inhibits the measured activity by half. Higher therefore signals weaker potency.

The values are drawn from patent US9663529B2, “Tricyclic pyrido-carboxamide derivatives as rock inhibitors” (BRISTOL-MYERS SQUIBB COMPANY, priority 2013, dated 2017).
